Assay results published in article PMC11124822, “Discovery and Anticancer Screening of Novel Oxindole-Based Derivative Bearing Pyridyl Group as Potent and Selective Dual FLT3/CDK2 Kinase Inhibitor” (Pharmaceuticals, 2024).
Like-named read-outs stand apart in the source and are kept apart here.

Columns and labels:
T-47D = assay: NCI-60 antiproliferative screen (SRB); type: cell-based, human; settings: 48 h
NCI-H322M = assay: NCI-60 antiproliferative screen (SRB); type: cell-based, human; settings: five-dose, 48 h, NCI-H322M
K-562 = assay: NCI-60 antiproliferative screen (SRB); type: cell-based, human; settings: 48 h
U251 = assay: NCI-60 antiproliferative screen (SRB); type: cell-based, human; settings: 48 h
SK-MEL-2 = assay: NCI-60 antiproliferative screen (SRB); type: cell-based, human; settings: 48 h
M14 = assay: NCI-60 antiproliferative screen (SRB); type: cell-based, human; settings: 48 h
[1] = system: NCI-60 human cancer cell lines; assay: NCI-60 screen, full panel summary; type: cell-based
Method: In a comprehensive test, compounds were assayed at a single dose concentration (10^−5 M) in the full panel of NCI-60 cancer cell lines.

SN12C = assay: NCI-60 antiproliferative screen (SRB); type: cell-based, human; settings: 48 h
HT29 = assay: NCI-60 antiproliferative screen (SRB); type: cell-based, human; settings: 48 h
SF-539 = assay: NCI-60 antiproliferative screen (SRB); type: cell-based, human; settings: 48 h
PC-3 = assay: NCI-60 antiproliferative screen (SRB); type: cell-based, human; settings: 48 h
COLO 205 = assay: NCI-60 antiproliferative screen (SRB); type: cell-based, human; settings: 48 h
NCI-H23 = assay: NCI-60 antiproliferative screen (SRB); type: cell-based, human; settings: 48 h

Question: With `O=C1Nc2cc(Cl)ccc2C1=Cc1ccc(OCc2cccnc2)cc1` (mixture of isomers) [Compound 5l, (E/Z)-6-Chloro-3-[4-(pyridin-3-ylmethoxy)benzylidene] indolin-2-one] as the compound, how does the inhibition at 10 µM (T-47D; Homo sapiens, T47D, 10 µM single dose, T-47D (Breast), read-out: Growth inhibition (%)) read?
Answer: 69%

Question: What about the GI50 (T-47D; Homo sapiens, T47D, five-dose, T-47D) of the same compound?
Answer: 3.18 µM

Question: And the CC50 (T-47D; Homo sapiens, T47D, five-dose, T-47D, read-out: LC50 (the source's name))?
Answer: > 100 µM

Question: What about the TGI (T-47D; five-dose, T-47D) of the same compound?
Answer: >100 µM

Question: And the GI50 (NCI-H322M; Homo sapiens)?
Answer: 23.2 µM

Question: And the TGI (NCI-H322M)?
Answer: >100 µM

Question: What about the inhibition at 10 µM (K-562; Homo sapiens, K562, 10 µM single dose, K-562 (Leukemia), read-out: Growth inhibition (%)) of the same compound?
Answer: 95%

Question: And the GI50 (K-562; Homo sapiens, K562, five-dose, K-562)?
Answer: 3.08 µM

Question: And the CC50 (K-562; Homo sapiens, K562, five-dose, K-562, read-out: LC50 (the source's name))?
Answer: > 100 µM

Question: And the TGI (K-562; five-dose, K-562)?
Answer: >100 µM

Question: What about the inhibition at 10 µM (U251; Homo sapiens, U-251, 10 µM single dose, U251 (CNS), read-out: Growth inhibition (%)) of the same compound?
Answer: 76.4%

Question: And the GI50 (U251; Homo sapiens, U-251, five-dose, U251)?
Answer: 7.55 µM

Question: And the CC50 (U251; Homo sapiens, U-251, five-dose, U251, read-out: LC50 (the source's name))?
Answer: > 100 µM

Question: And the TGI (U251; five-dose, U251)?
Answer: 39.40 µM

Question: And the inhibition at 10 µM (SK-MEL-2; Homo sapiens, 10 µM single dose, SK-MEL-2 (Melanoma), read-out: Growth inhibition (%))?
Answer: 66.2%

Question: What about the GI50 (SK-MEL-2; Homo sapiens, five-dose, SK-MEL-2) of the same compound?
Answer: 9.67 µM

Question: And the CC50 (SK-MEL-2; Homo sapiens, five-dose, SK-MEL-2, read-out: LC50 (the source's name))?
Answer: > 100 µM

Question: And the TGI (SK-MEL-2; five-dose, SK-MEL-2)?
Answer: 65.90 µM

Question: And the inhibition at 10 µM (M14; Homo sapiens, 10 µM single dose, M14 (Melanoma), read-out: Growth inhibition (%))?
Answer: 77.1%

Question: And the GI50 (M14; Homo sapiens, five-dose, M14)?
Answer: 29 µM

Question: What about the TGI (M14; five-dose, M14) of the same compound?
Answer: >100 µM

Question: And the “Positive Cytostatic Effect (cell lines with percent growth from 0 to 50 / total number of cell lines)” value ([1]; 10 µM single dose)?
Answer: 44/56

Question: What about the “Positive Cytotoxic Effect (cell lines with percent growth of <0 / total number of cell lines)” value ([1]; 10 µM single dose) of the same compound?
Answer: 4/56

Question: And the “Sensitive/Total Cell Lines” value ([1]; 10 µM single dose)?
Answer: 48/56

Question: What about the “The Most Sensitive Cell Line” value ([1]; 10 µM single dose) of the same compound?
Answer: SK-MEL-5

Question: And the “number of cell lines with cytostatic effects” value ([1]; 10 µM single dose)?
Answer: 44

Question: And the “number of cell lines with cytotoxic effects” value ([1]; 10 µM single dose)?
Answer: 4

Question: What about the “Mean Growth Percent” value ([1]; 10 µM single dose, all NCI-60 cell lines) of the same compound?
Answer: 72.81

Question: What about the inhibition at 10 µM ([1]; Homo sapiens, 10 µM single dose, read-out: Range of Growth Inhibition on All Cells) of the same compound?
Answer: 8.89 to 153%

Question: What about the GI50 ([1]; Homo sapiens, five-dose, almost all cell lines, read-out: GI50 values, range over evaluated human cancer types) of the same compound?
Answer: 2.7 to 77.1 µM

Question: What about the CC50 ([1]; Homo sapiens, five-dose, excluding LOX IMVI, SK-MEL-5, SK-MEL-28, read-out: LC50 for most of the examined cancer cells) of the same compound?
Answer: > 100 µM

Question: And the GI50 ([1]; Homo sapiens, five-dose, full panel, read-out: Full panel MG-MID (GI50))?
Answer: 12.2 µM

Question: What about the “TGI against the left-over cancer cells” value ([1]; five-dose) of the same compound?
Answer: > 100 µM

Question: What about the inhibition at 10 µM (SN12C; Homo sapiens, 10 µM single dose, SN12C (Renal), read-out: Growth inhibition (%)) of the same compound?
Answer: 66.1%

Question: And the GI50 (SN12C; Homo sapiens, five-dose, SN12C)?
Answer: 9.74 µM

Question: What about the CC50 (SN12C; Homo sapiens, five-dose, SN12C, read-out: LC50 (the source's name)) of the same compound?
Answer: > 100 µM

Question: What about the TGI (SN12C; five-dose, SN12C) of the same compound?
Answer: 66.60 µM

Question: And the inhibition at 10 µM (HT29; Homo sapiens, HT-29, 10 µM single dose, HT29 (Colon), read-out: Growth inhibition (%))?
Answer: 90.3%

Question: What about the GI50 (HT29; Homo sapiens, HT-29, five-dose, HT29) of the same compound?
Answer: 6.45 µM

Question: What about the CC50 (HT29; Homo sapiens, HT-29, five-dose, HT29, read-out: LC50 (the source's name)) of the same compound?
Answer: > 100 µM

Question: And the TGI (HT29; five-dose, HT29)?
Answer: 37.80 µM

Question: What about the inhibition at 10 µM (SF-539; Homo sapiens, 10 µM single dose, SF-539 (CNS), read-out: Growth inhibition (%)) of the same compound?
Answer: 59.3%

Question: What about the GI50 (SF-539; Homo sapiens, five-dose, SF-539) of the same compound?
Answer: 13.6 µM

Question: And the TGI (SF-539; five-dose, SF-539)?
Answer: >100 µM

Question: What about the inhibition at 10 µM (PC-3; Homo sapiens, 10 µM single dose, PC-3 (Prostate), read-out: Growth inhibition (%)) of the same compound?
Answer: 67.1%

Question: What about the GI50 (PC-3; Homo sapiens, five-dose, PC-3) of the same compound?
Answer: 6.37 µM

Question: What about the CC50 (PC-3; Homo sapiens, five-dose, PC-3, read-out: LC50 (the source's name)) of the same compound?
Answer: > 100 µM

Question: And the TGI (PC-3; five-dose, PC-3)?
Answer: >100 µM

Question: And the inhibition at 10 µM (COLO 205; Homo sapiens, 10 µM single dose, COLO 205 (Colon), read-out: Growth inhibition (%))?
Answer: 96.4%

Question: What about the GI50 (COLO 205; Homo sapiens, five-dose, COLO 205) of the same compound?
Answer: 9.62 µM

Question: What about the TGI (COLO 205; five-dose, COLO 205) of the same compound?
Answer: >100 µM

Question: And the inhibition at 10 µM (NCI-H23; Homo sapiens, 10 µM single dose, NCI-H23 (NSCLC), read-out: Growth inhibition (%))?
Answer: 75.6%

Question: And the GI50 (NCI-H23; Homo sapiens, five-dose, NCI-H23)?
Answer: 5.93 µM

Question: What about the TGI (NCI-H23; five-dose, NCI-H23) of the same compound?
Answer: >100 µM
